# From PMC8279484 (Journal of Medicinal Chemistry, 2021)
# Where “and” joins values, the source holds several entries; their conditions need not be identical. Identical values can stand only once.
# Key:
# IL-6 = test: LPS-induced IL-6 release from THP-1 Lucia monocytes (multiplex electrochemiluminescence); assay type: cell-based, human; details: for IC50: Homo sapiens, THP-1; for IC50 / Imax, IL-6 release: LPS 50 ng/mL, 24 h; for Imax, IL-6 release: concentration–response
# Experimental: (§1) LXA41 and all of the tested sLXms were dissolved in ethanol and further diluted in a culture medium (final ethanol concentration 0.1%; equivalent concentrations were used as the vehicle control). Prior to in vitro experiments, THP-1-Lucia NF-κB cells were harvested and plated at 1 × 10^5 cells/well on 96-well plates and left to settle in the incubator at 37 °C, 95% humidity, and 5% CO2, in 0.1% FBS-containing media, pretreated for 30 min with increasing doses of LXA41, sLXms (from 10^–12 to 10^–6 M), or appropriate controls, followed by stimulation with 50 ng/mL LPS for 24 h. Untreated (Unt) or vehicle-treated (Veh) cells were used as negative controls; 1 pM (1R)-5, the (1R)-epimer of the benzo-mimetic, was used as a positive control for any aromatic mimetic; and, finally, we compared the observed effects to the conventional glucocorticoid dexamethasone (Dex) treatment, at 1 μM.
# (§2) After 24 h of exposure to LXA41, sLXms, or vehicle, followed by LPS stimulation (50 ng/mL), as described above, THP-1-Lucia NF-κB-cell supernatants were collected and cleared by centrifugation. Concentrations of IFN-γ, IL-1β, IL-6, IL-8, IL-10, IL-12p70, and TNF-α in culture supernatants were assessed by electro-chemi-luminescent detection, using a commercially available human 96-well plate “multiplex” (several analytes in the same well) kit for tissue culture samples, according to the manufacturers’ guidelines.
# (§3) The “coding” of the heat-map indicates the arbitrary criteria to assign points to each single PD component (efficacy = Imax or Emax; potency = IC50 or EC50; slope = HS) to generate a final (aggregate) relative PD score. If a single PD component was greater than the reference level (x > 1), then the single-component relative score was arbitrarily set to +1 (light green) or +2 (dark green). If a single PD component was equal to the reference level (x = 1), then the single-component relative score was arbitrarily set to 0 (gray). If a single PD component was smaller than the reference level (x < 1), then the single-component relative score was arbitrarily set to −1 (light red) or −2 (dark red). If the curve of a single PD component was best fitting to a flat line (x = 0), then the single-component relative score was arbitrarily set to −4 (purple) (Table S1).
# C57bl/6 mice = test: Murine carrageenan-induced paw edema; assay type: in vivo, mouse; design: Paw swelling Index: Mean: unit not given here; details: for % relative to carageenan-induced level: Veh = 100; for % relative to carageenan-induced level / % reduction relative to carageenan-induced level: (R)-6, (R)-17 2 μg/kg, Naproxen 50 mg/kg p.o.; for effect on inflammatory response (paw swelling), in words / Paw swelling Index: Mean: (R)-6, (R)-17 2 μg/kg ip, Naproxen 50 mg/kg po; for Paw swelling Index: Mean: n = 3
# Experimental: Then, 50 μL of 1% carrageenan was injected with an equivalent volume of saline injected into the contralateral paw. Inflammation was presented as the difference in paw thickness over time using gauge (POCO 2T; Kroeplin, GmbH, Surrey, U.K.). Data are presented as mean ± SEM, n = 3 mice/treatment group.
# IL-8 = test: LPS-induced IL-8 release from THP-1 Lucia monocytes (multiplex electrochemiluminescence); assay type: cell-based, human; details: Dex 1 μM; 1 1 nM; (R)-6 concentration not given
# Experimental: as §1, §2
# wild-type HEK-293 cells = test: Intracellular calcium flux in wild-type HEK-293 (specificity control); assay type: cell-based, human
# Experimental: To explore the mechanism of action through which the sLXm lead compound exerts the effects seen here, its interaction with the ALX/FPR2 receptor was investigated and agonist-induced intracellular calcium transients were measured using an engineered cell line stably overexpressing the ALX/FPR2 receptor and the Gαq subunit coupled to it (Figure S6). Wild-type HEK cells were used as controls, to verify the specificity of the agonism toward ALX/FPR2, as previously reported.[36] Briefly, prior to cell plating, sterile 96-well plates (black-sided with optically clear glass flat bottoms) were PDL-coated overnight. Subsequently, 2 × 10^5 wild-type cells and overexpressed cells/well were cultured for 18 h in DMEM complete media (containing Ca^2+ and Mg^2+) to facilitate adherence prior to labeling with Fluo-4 dye. After 1 h of incubation at 37 °C with Fluo-4, cells were gently washed twice and placed in 100% Hanks’ balanced salt solution (HBSS; 37 °C) before reading the fluorescence (485/535 nm), using a spectrophotometer conjugated with an injection system (Clariostar BMG LABTECH plate reader), allowing addition to the cells of controls (1 mM ATP, a GPCR purinergic agonist, 2 nM Wp, a synthetic ALX/FPR2 agonist) or experimental treatments [10 pM, 1 nM, and 100 nM LXA41 or (R)-6].
# IL-1β = test: LPS-induced IL-1β release from THP-1 Lucia monocytes (multiplex electrochemiluminescence); assay type: cell-based, human; details: for IC50: Homo sapiens, THP-1
# Experimental: as §1, §2, §3
# THP-1-MF0 macrophage = test: Phagocytosis of fluorescent E. coli bioparticles by THP-1-MF0 macrophages; assay type: cell-based, human; details: for EC50: Homo sapiens, Macrophage, 30 min pretreatment, read-out: Potency EC50; for EC50 / Efficacy Emax (%): 2 h bioparticles; for Efficacy Emax (%): 30 min pretreatment 1 fM–1 μM, figure expresses fold change
# Experimental: Mycoplasma-free THP-1 monocytes were grown in an RPMI 1640 (Gibco) medium containing 2 mM L-glutamine, 2.00 g/L sodium bicarbonate, and 2.00 g/L glucose. Then, 10% (v/v) heat-inactivated FBS (30 min at 56 °C) and Pen-Strep (100 U/mL to 100 μg/mL) were supplemented to the growth media.
# Cell adherence was allowed for 1 h and 30 min at 37 °C/5% CO2. Cells were then treated for 30 min with controls and phagocytosis effectors for testing (vehicle, LXs, Rvs, or sLXms). Subsequently, media containing controls/effectors were vacuum-aspirated and replaced with a solution containing fluorescently prelabeled E. coli-derived bioparticles and cells were incubated in the dark for 2 h at 37 °C/5% CO2 to allow particle ingestion by monocytes/macrophages. After that, media containing bioparticles were vacuum-aspirated and replaced with a solution containing trypan blue and cells were incubated for 1 min at room temperature to allow quenching of unbound particles to ensure specificity of the fluorescent signal, deriving only from ingested particles (not shown). After aspiration of Trypan, the fluorescence reading was immediately performed at the following conditions: end point; reading from the bottom of the plate; Ex.480/Em.520 nm.
# NF-κB = tested on: NF-κB; design: method as in PMID 30213823; details: LXA4 1 0.1 nM; 2 1 nM; cited from earlier work
SMILES,IC50 (IL-6),"Imax, IL-6 release (IL-6)",% relative to carageenan-induced level (C57bl/6 mice; 4h),% relative to carageenan-induced level (C57bl/6 mice; 8h),% relative to carageenan-induced level (C57bl/6 mice; 24h),% relative to carageenan-induced level (C57bl/6 mice; 48h),% reduction relative to carageenan-induced level (C57bl/6 mice; 72h),% relative to carageenan-induced level (C57bl/6 mice; 72h),"effect on inflammatory response (paw swelling), in words (C57bl/6 mice)","Paw swelling Index: Mean (C57bl/6 mice; Time 4h, 1% carrageenan)",Paw swelling Index: Mean (C57bl/6 mice; Time 8h),Paw swelling Index: Mean (C57bl/6 mice; Time 24h),Paw swelling Index: Mean (C57bl/6 mice; Time 48h),Paw swelling Index: Mean (C57bl/6 mice; Time 72h),enhancement of LPS-induced secretion of IL-8 (IL-8),Ca^2+ mobilization in wild-type HEK-293 cells (wild-type HEK-293 cells),"IC50 (IL-1β; LPS 50 ng/mL, 24 h)",EC50 (THP-1-MF0 macrophage),Potency Rel. Pot. (THP-1-MF0 macrophage; relative to LXA4 (1)),Single comp. score Rel. Pot. (THP-1-MF0 macrophage; relative to LXA4 (1)),further results
"CCCCC[C@@H](O)c1nc2ccccc2nc1/C=C/[C@@H](O)[C@@H](O)CCCC(=O)OC [(R)-6, Methyl (5S,6R,E)-5,6-Dihydroxy-8-(3-((R)-1-hydroxyhexyl)quinoxalin-2-yl)oct-7-enoate]",1 pM,84 ± 2%,116%,63%,72%,53%,10%,110%,significantly reduced,0.08,0.25,0.63,0.21,0.11,2.5 fold,no calcium release was induced,1 pM,50 pM,100,2 (x ≥ 5),"PD score, IL-6 release (IL-6; relative to LXA4 (1)): −2; rel. slope, IL-6 release (IL-6; relative to LXA4 (1)): 0.7; ΔΤR50: reduction of time taken to reduce the inflammatory response to 50% max (C57bl/6 mice; (R)-6 2 μg/kg ip, relative to vehicle-treated animals): 6 h; Imax, IL-1β release (IL-1β; concentration–response, LPS 50 ng/mL, 24 h): 73 ± 2%; PD score, IL-1β release (IL-1β; relative to LXA4 (1)): −2; rel. slope, IL-1β release (IL-1β; relative to LXA4 (1)): −0.03"
"CCCCC[C@@H](O)c1nc2ccccc2nc1/C=C/[C@H]1OC(C)(C)O[C@H]1CCCC(=O)OC [(R)-17, Methyl 4-((4S,5R)-5-((E)-2-(3-((R)-1-Hydroxyhexyl)quinoxalin-2-yl)vinyl)-2,2-dimethyl-1,3-dioxolan-4-yl)butanoate]",,,103%,84%,92%,149%,120%,220%,no effect,0.07,0.33,0.80,0.60,0.22,,,,,,,% reduction relative to carageenan-induced level (C57bl/6 mice; 4h): 3%; % reduction relative to carageenan-induced level (C57bl/6 mice; 24h): -8%; % reduction relative to carageenan-induced level (C57bl/6 mice; 48h): 49%
"CCCCC[C@H](O)/C=C/C=C\C=C\C=C\[C@@H](O)[C@@H](O)CCCC(=O)O [Compound 1, LXA4]",1 pM,99 ± 1%,,,,,,,,,,,,,2.5 fold,without effect,1 pM,,1,,"Efficacy Emax (%) (THP-1-MF0 macrophage): 4.2 ± 0.5% and 4.2 ± 2%; concentration of peak phagocytosis (THP-1-MF0 macrophage; back to baseline at 1 μM): 100 nM; increase of phagocytosis (THP-1-MF0 macrophage; concentration-dependent, at peak): 4 fold; Efficacy Rel. Eff. (THP-1-MF0 macrophage; relative to LXA4 (1)): 0; effect on TNF-α-stimulated NF-κB activity (NF-κB): reduced TNF-α-stimulated NF-κB activity"
"CCCCC[C@@H](O)c1c(/C=C/[C@@H](O)[C@@H](O)CCCC(=O)OC)nc(C)n1C [Compound 5, imidazolo-LXA4]",,,,,,,,,,,,,,,,,,10 pM,500,2 (x ≥ 5),Efficacy Emax (%) (THP-1-MF0 macrophage): 4.2 ± 0.7%
